Test results published in patent US4443448A, “Indane derivatives, pharmaceutical compositions thereof and method of preparation” (priority 1980, dated 1984).

How the values were obtained:
[1] = tested on: methylphenidate; experiment: Methylphenidate antagonism in mice; format: in vivo; conditions: Mus musculus, ip, 2 h, read-out: MePh antag. ED50 2 hr i.p., mice, test substance i.p., 2 hr before methylphenidate 60 mg/kg s.c.
How it was run: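 Test substance given i.p. 2 or 24 h before methylphenidate 60 mg/kg s.c.; mice observed in pairs for 1 h on corrugated paper for biting. Three pairs per dose, scored as fraction of pairs not biting; ED50 in mg/kg.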

[2] = tested on: amphetamine; experiment: Amphetamine antagonism in rats; format: in vivo; conditions: Rattus norvegicus, po, rats, p.o., amphetamine 10 mg/kg base i.v.; read-out: Amphetamine antag. ED50 p.o.
How it was run: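 Rats dosed p.o. with test substance, then 2 or 24 h later given amphetamine sulphate 13.6 mg/kg (10 mg/kg base) i.v.; five rats per dose. Stereotypy (head movements, compulsive gnawing) scored for 1 min at 55 and 65 min; fraction of rats without stereotypy used to derive ED50 in mg/kg.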

[3] = in vivo; design: species or system rats; conditions: for Ratio catalep./Amphet.: catalepsy ED50 / amphetamine antagonism ED50; for ED50: rat, in vivo, po, rats, p.o., strongest effect within first 6 hours, read-out: Catalep. (catalepsy wire mesh, rat, max, ED50)
How it was run: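 Oral dosing at 4 fixed-scale levels, five animals per group. Rats were placed on a vertical 1 cm-mesh wire netting at 60, 120, 180, 240, 300 and 360 min post-dose. Immobility for 15 s scored cataleptic; sliding passively or climbing scored non-cataleptic.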

[4] = Mouse grid shock (analgesia); format: in vivo; conditions: mice, minimal effective dose, in mg/kg
How it was run: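 Mice (five per dose) on an electrified grid received 20 cycles/s, 5 msec square-wave pulses of rising current until they squeaked, giving the pain threshold in mA. Results are % increase over the pre-dose value, or an MED by van der Waerden X-test.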

[5] = Pharmacological animal tests, general statements on activity; conditions: in vivo
Description: After recrystallisation from 500 milliliters of methanol 18.5 grams of the (-)-isomer of Lu 13-092, D-(-)-tartrate were obtained, melting at 207°-209° C. […] The novel indanes of Formula I were tested pharmacologically in standard and reliable animal tests.

[6] = in vivo; conditions: iv

Structure (SMILES)	ED50 [1] [mg/kg]	ED50 [2] [mg/kg]	Ratio catalep./Amphet. [3]	ED50 [3] [mg/kg]	MED Grid Shock [4]	neuroleptic activity [5]	LD50 [6] [mg/kg]
CN1CCN([C@@H]2C[C@@H](c3ccc(F)cc3)c3ccc(F)cc32)CC1 (relative stereo) [Lu 13-092, trans-1-methyl-4-(3-(4'-fluorophenyl)-6-fluoro-1-indanyl)piperazine]	4.2	14.8	5.5	81	1.3	the neuroleptic active isomer is the trans-isomer	80
CC(C)N1CCN(C2CC(c3ccc(F)cc3)c3ccc(F)cc32)CC1 (centres unmarked) [Lu 17-062, 1-Isopropyl-4-(3-(4'-fluorophenyl)-6-fluoro-1-indanyl)piperazine]	1.3	10	1.4	14	5	neuroleptical active isomer	113
